This is an account of results in patent US20250197351A1, “C4-CARBOXYLIC ACID-S[…] DERIVATIVES AND METHODS OF USING” (priority 2022, published 2025).

The target in one series is T1, 5-HT1A receptor (Homo sapiens, UniProt P08908).
T1 construct: host or cells: CHO-K1 (co-expressing Ga15)
T1 sequence (P08908 1-422): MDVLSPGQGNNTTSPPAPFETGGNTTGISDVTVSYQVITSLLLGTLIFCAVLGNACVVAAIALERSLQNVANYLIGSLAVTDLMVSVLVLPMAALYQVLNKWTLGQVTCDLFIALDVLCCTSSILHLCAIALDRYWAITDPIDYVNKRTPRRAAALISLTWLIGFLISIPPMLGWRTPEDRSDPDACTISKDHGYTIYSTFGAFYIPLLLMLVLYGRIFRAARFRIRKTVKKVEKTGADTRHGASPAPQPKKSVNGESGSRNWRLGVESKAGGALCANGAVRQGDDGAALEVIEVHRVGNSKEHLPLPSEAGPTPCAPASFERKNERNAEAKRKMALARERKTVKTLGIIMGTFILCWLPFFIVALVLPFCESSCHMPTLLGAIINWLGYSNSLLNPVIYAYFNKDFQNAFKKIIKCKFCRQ
Nature of the series: cAMP-Glo assay of 5-HT1A receptor modulation, CHO-K1/5-HT1A/Ga15 (+5-HT1A) vs CHO-K1/Ga15 (−5-HT1A) cells. Format: cell-based. The note with it: +5-HT1A vs −5-HT1A CHO-K1 cells; 4 μM forskolin; increasing ligand concentration.

Series [1] concerns the target T2, 5-HT2A receptor (5-HT2AR) (Mus musculus, UniProt P35363).
T2 construct: host or cells: C57BL/6 mice, in vivo (neuronal receptor)
Nature of the series: Drug-induced Head Twitch Response (HTR). Format: in vivo. The note with it: 1 mg/kg i.p., 15-to-30-minute window post-drug, relative to vehicle.

The nature of series [2]: Mouse pharmacokinetic (PK) study, parent compound and psilocin metabolite in plasma. It counts as in vivo. The settings on record: for Plasma concentration of psilocin: individual mice, LLOQ 0.2 ng/mL. The source says:
(§1) Briefly, the procedure was as follows. […] 19, 2022.

Series [3] can be described thus: Dosing solution concentration by LC-MS (nominal vs measured). Format: physicochemical. As for the experimental part: as §1
Pharmacokinetic (PK) evaluations were performed in the same manner as described in Example 1, except compound C(IV) was used in place of compound C(V). […] Thus, only psilocin PK analysis was performed. […] Table 46 summarizes these “measured” concentrations along with corresponding “nominal” concentrations for each dosing solution. Results for psilocin PK following C(IV) administration are found in Tables 47A-47B (0.293 mg/kg IV dose), Tables 48A-48B (0.275 mg/kg oral dose), Tables 49A-49B (0.789 mg/kg oral dose), Tables 50A-50B (2.52 mg/kg oral dose), Table 51 (comparative summary for IV data), Table 52 (comparative summary for oral data), Table 53A (psilocin exposure) and FIGS. 10H (i) and 10H (ii).

Where “and” joins values, the source holds several entries; their conditions need not be identical. Equal values may be shown once.

T2 sequence (P35363 whole entry): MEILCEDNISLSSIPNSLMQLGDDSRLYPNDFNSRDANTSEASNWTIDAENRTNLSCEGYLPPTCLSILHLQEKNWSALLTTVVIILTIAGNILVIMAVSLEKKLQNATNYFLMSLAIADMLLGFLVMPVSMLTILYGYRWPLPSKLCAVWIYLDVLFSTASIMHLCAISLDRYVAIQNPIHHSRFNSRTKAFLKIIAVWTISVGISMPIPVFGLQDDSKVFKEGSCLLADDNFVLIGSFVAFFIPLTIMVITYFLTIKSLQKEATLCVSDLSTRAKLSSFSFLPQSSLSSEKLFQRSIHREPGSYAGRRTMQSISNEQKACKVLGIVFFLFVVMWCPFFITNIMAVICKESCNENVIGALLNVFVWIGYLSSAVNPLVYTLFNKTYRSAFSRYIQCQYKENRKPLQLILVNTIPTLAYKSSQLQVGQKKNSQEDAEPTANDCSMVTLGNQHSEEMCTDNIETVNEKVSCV

`CN(C)CCc1c[nH]c2cccc(OC(=O)CC3CC3)c12` [C(IV)]: the “5-HT1A receptor modulation (reduction of forskolin-induced cAMP)” value on 5-HT1A receptor is listed as “significant receptor modulation”. Also, the “Head Twitch Response (HTR) incidence” value in series [1] is listed as “Elevated incidences of HTR”. Besides, the “Plasma concentration of psilocin” value in series [2] (0.275 mg/kg oral C(IV), 4 h) is “BLQ”; in series [2] (0.275 mg/kg oral C(IV), 6 h), “BLQ”; in series [2] (0.275 mg/kg oral C(IV), 8 h), “BLQ”; in series [2] (0.275 mg/kg oral C(IV), 24 h) it was “No Peak”; in series [2] (0.293 mg/kg i.v. C(IV), 8 h) it was “No Peak and BLQ (2×)”; in series [2] (0.789 mg/kg oral C(IV), 8 h), “BLQ”. Further, the “Plasma concentration of psilocin” value in series [2] (0.789 mg/kg oral C(IV), 24 h) is “No Peak”; in series [2] (2.52 mg/kg oral C(IV), 24 h) it was “BLQ and No Peak (2×)”. For the same molecule, in series [2] (mouse, any animals at any dose (i.v. and oral)), the “Detection of parent compound in plasma” value is reported as “not detectable in any animals at any dose”. In addition, the “Stability in dosing solutions” value in series [3] was “compound instability in dosing solutions”.
